Tested on: Ctenocephalides felis, Diabrotica undecimpunctata, Nephotettix cincticeps or Rhipicephalus sanguineus
Assay: Pooled statement: active in one or more of the above tests (Methods A to E)
Assay type: in vivo
Details: active = reaching the threshold of Method A, B, C, D or E; test not given per compound
Method: The following representative test procedures, using compounds of the invention, were conducted to determine the parasiticidal and pesticidal activity of compounds of the invention.
A test container was filled with 10 adults of Ctenocephalides felis. A glass cylinder was closed on one end with parafilm and placed on top of the test container. The test compound solution was then pipetted into bovine blood and added to the glass cylinder. The treated Ctenocephalides felis were held in this artificial dog test (blood 37° C., 40-60% relative humidity; Ctenocephalides felis 20-22° C., 40-60% relative humidity) and assessment performed at 24 and 48 hours after application. Active compounds gave at least 90% control of Ctenocephalides felis at a test concentration of 5 ppm or less.
Two days before application, seeds of maize were soaked in water under warm conditions to elicit fast germination. One day before application, eggs of Diabrotica undecimpunctata were transferred to one half of a Japanese filter paper placed in a plastic petri dish. Afterwards, a sprouted maize seed was placed on a moistened pad beside the filter paper. Three drops of 200 microliters of test compound solution were carefully pipetted onto the egg. The remainder of the solution was placed on the maize and then the Petri dish was closed. The treated eggs in the Petri dishes were held in a climate chamber for 6 days. The compound efficacy (percentage of dead eggs and/or larvae in comparison to untreated control) was assessed 6 days after application using a binocular microscope.
Active compounds gave at least 90% control of Diabrotica undecimpunctata at a test concentration of 10 ppm.
The leaves of 12 rice plants having a stem length of 8 cm were dipped for 5 seconds into an aqueous solution of the formulated test compound. After the solution had run off, the rice plants treated in this manner were placed in a Petri dish and populated with about 20 larvae (L3 stage) of Nephotettix cincticeps. The Petri dish was closed and then stored in a climate chamber (16 hours of light/day, 25° C., 40-60% relative humidity). After 6 days storage, the percentage mortality of leafhopper larvae was determined.
Active compounds gave at least 98% mortality of Nephotettix cinciceps larvae at a test concentration of 100 ppm.
Solutions of the test compounds were dropped onto filter paper, dried and the filter paper placed into test tubes and infested with 10 adults of Ctenocephalides felis. The treated Ctenocephalides felis were held in a climate chamber (26° C., 80% RH) and the percentage efficacy assessed 24 hours and 48 hours after application in comparison with the untreated control.
Active compounds gave at least 70% contact control of Ctenocephalides felis at a test concentration of 1000 ppm.
Solutions of the test compounds were dropped onto filter paper, dried and the filter paper placed into test tubes and infested with 20-30 larvae (L1) of Rhipicephalus sanguineus and the tubes closed with a clip. The treated Rhipicephalus sanguineus were held in a climate chamber (25° C., 90% RH) and the percentage efficacy assessed 24 hours after application in comparison with the untreated control. Active compounds gave at least 70% contact control of Rhipicephalus sanguineus at a test concentration of 100 ppm.

## CN(c1c([S+]([O-])C(F)(F)F)c(C#N)nn1-c1c(Cl)cc(C(F)(F)F)cc1Cl)S(=O)(=O)Cc1ccc(Cl)cc1 (stereo not shown) [Compound 2-80]
  active in one or more of the above tests: active

## Cc1cc(C)c(S(=O)(=O)N(C)c2c(SC(F)(F)F)c(C#N)nn2-c2c(Cl)cc(C(F)(F)F)cc2Cl)c(C)c1 [Compound 5-40]
  active in one or more of the above tests: active

## CCCCS(=O)(=O)N(C)c1c([S+]([O-])C(F)(F)F)c(C#N)nn1-c1c(Cl)cc(C(F)(F)F)cc1Cl (stereo not shown) [Compound 1-87]
  active in one or more of the above tests: active

## CN(c1c(SC(F)(F)F)c(C#N)nn1-c1c(Cl)cc(C(F)(F)F)cc1Cl)S(=O)(=O)c1ccc(C(C)(C)C)cc1 [Compound 5-38]
  active in one or more of the above tests: active

## CN(c1c(SC(F)(F)F)c(C#N)nn1-c1c(Cl)cc(C(F)(F)F)cc1Cl)S(=O)(=O)c1cc(Cl)cc(Cl)c1 [Compound 5-42]
  active in one or more of the above tests: active

## CCCCCCCCCCCCS(=O)(=O)N(C)c1c([S+]([O-])C(F)(F)F)c(C#N)nn1-c1c(Cl)cc(C(F)(F)F)cc1Cl (stereo not shown) [Compound 1-96]
  active in one or more of the above tests: active

## CN(c1c(S(=O)(=O)C(F)(F)F)c(C#N)nn1-c1c(Cl)cc(C(F)(F)F)cc1Cl)S(=O)(=O)Cc1ccc(F)cc1 [Compound 2-121]
  active in one or more of the above tests: active

## CCS(=O)(=O)Nc1c([S+]([O-])C(F)(F)F)c(C#N)nn1-c1c(Cl)cc(C(F)(F)F)cc1Cl (stereo not shown) [Compound 1-117]
  active in one or more of the above tests: active

## COC(=O)c1ccc(I)cc1S(=O)(=O)N(C)c1c([S+]([O-])C(F)(F)F)c(C#N)nn1-c1c(Cl)cc(C(F)(F)F)cc1Cl (stereo not shown) [Compound 5-86]
  active in one or more of the above tests: active

## CN(c1c([S+]([O-])C(F)(F)F)c(C#N)nn1-c1c(Cl)cc(C(F)(F)F)cc1Cl)S(=O)(=O)c1ccc(-c2ccc(F)cc2)cc1 (stereo not shown) [Compound 5-151]
  active in one or more of the above tests: active

## Cc1cccc(S(=O)(=O)N(C)c2c(SC(F)(F)F)c(C#N)nn2-c2c(Cl)cc(C(F)(F)F)cc2Cl)c1 [Compound 5-30]
  active in one or more of the above tests: active

## CN(c1c(S(=O)(=O)C(F)(F)F)c(C#N)nn1-c1c(Cl)cc(C(F)(F)F)cc1Cl)S(=O)(=O)Cc1cc(C(F)(F)F)cc(C(F)(F)F)c1 [Compound 2-129]
  active in one or more of the above tests: active

## CN(c1c(S(=O)(=O)C(F)(F)F)c(C#N)nn1-c1c(Cl)cc(C(F)(F)F)cc1Cl)S(=O)(=O)Cc1ccc(Cl)cc1 [Compound 2-115]
  active in one or more of the above tests: active

## Cc1ccc(CS(=O)(=O)N(C)c2c(S(=O)(=O)C(F)(F)F)c(C#N)nn2-c2c(Cl)cc(C(F)(F)F)cc2Cl)cc1 [Compound 2-144]
  active in one or more of the above tests: active

## CN(c1c([S+]([O-])C(F)(F)F)c(C#N)nn1-c1c(Cl)cc(C(F)(F)F)cc1Cl)S(=O)(=O)C(Cl)(Cl)Cl (stereo not shown) [Compound 1-118]
  active in one or more of the above tests: active

## CN(c1c(SC(F)(F)F)c(C#N)nn1-c1c(Cl)cc(C(F)(F)F)cc1Cl)S(=O)(=O)c1ccc(F)cc1 [Compound 5-9]
  active in one or more of the above tests: active

## CCCCCCCCCS(=O)(=O)N(C)c1c([S+]([O-])C(F)(F)F)c(C#N)nn1-c1c(Cl)cc(C(F)(F)F)cc1Cl (stereo not shown) [Compound 1-94]
  active in one or more of the above tests: active

## CCCCCCCCS(=O)(=O)N(C)c1c([S+]([O-])C(F)(F)F)c(C#N)nn1-c1c(Cl)cc(C(F)(F)F)cc1Cl (stereo not shown) [Compound 1-123]
  active in one or more of the above tests: active

## CN(c1c(S(=O)(=O)C(F)(F)F)c(C#N)nn1-c1c(Cl)cc(C(F)(F)F)cc1Cl)S(=O)(=O)Cc1ccccc1 [Compound 2-30]
  active in one or more of the above tests: active

## Cc1cccc(S(=O)(=O)N(C)c2c([S+]([O-])C(F)(F)F)c(C#N)nn2-c2c(Cl)cc(C(F)(F)F)cc2Cl)c1 (stereo not shown) [Compound 5-75]
  active in one or more of the above tests: active

## CC(C)S(=O)(=O)N(C)c1c(SC(F)(F)F)c(C#N)nn1-c1c(Cl)cc(C(F)(F)F)cc1Cl [Compound 1-122]
  active in one or more of the above tests: active

## CN(c1c([S+]([O-])C(F)(F)F)c(C#N)nn1-c1c(Cl)cc(C(F)(F)F)cc1Cl)S(=O)(=O)c1ccc(-c2ccc(Cl)c(Cl)c2)cc1 (stereo not shown) [Compound 5-150]
  active in one or more of the above tests: active

## CN(c1c([S+]([O-])C(F)(F)F)c(C#N)nn1-c1c(Cl)cc(C(F)(F)F)cc1Cl)S(=O)(=O)Cc1cc(Cl)cc(Cl)c1 (stereo not shown) [Compound 2-150]
  active in one or more of the above tests: active

## CN(c1c([S+]([O-])C(F)(F)F)c(C#N)nn1-c1c(Cl)cc(C(F)(F)F)cc1Cl)S(=O)(=O)c1ccccc1Cl (stereo not shown) [Compound 5-46]
  active in one or more of the above tests: active

## CN(c1c([S+]([O-])C(F)(F)F)c(C#N)nn1-c1c(Cl)cc(C(F)(F)F)cc1Cl)S(=O)(=O)Cc1ccc(Cl)s1 (stereo not shown) [Compound 4-35]
  active in one or more of the above tests: active

## CCCCCCCCCCS(=O)(=O)N(C)c1c(SC(F)(F)F)c(C#N)nn1-c1c(Cl)cc(C(F)(F)F)cc1Cl [Compound 1-125]
  active in one or more of the above tests: active

## CN(c1c(S(=O)(=O)C(F)(F)F)c(C#N)nn1-c1c(Cl)cc(C(F)(F)F)cc1Cl)S(=O)(=O)C=Cc1ccccc1 [Compound 1-115]
  active in one or more of the above tests: active

## Cc1ccc(S(=O)(=O)N(C)c2c(SC(F)(F)F)c(C#N)nn2-c2c(Cl)cc(C(F)(F)F)cc2Cl)cc1 [Compound 5-32]
  active in one or more of the above tests: active

## CN(c1c(S(=O)(=O)C(F)(F)F)c(C#N)nn1-c1c(Cl)cc(C(F)(F)F)cc1Cl)S(=O)(=O)Cc1cccs1 [Compound 4-34]
  active in one or more of the above tests: active

## CN(c1c(SC(F)(F)F)c(C#N)nn1-c1c(Cl)cc(C(F)(F)F)cc1Cl)S(=O)(=O)Cc1cccs1 [Compound 4-33]
  active in one or more of the above tests: active

## CN(c1c(S(=O)(=O)C(F)(F)F)c(C#N)nn1-c1c(Cl)cc(C(F)(F)F)cc1Cl)S(=O)(=O)CCCCl [Compound 1-121, 1-(2,6-Dichloro-4-trifluoromethylphenyl)-5-[N-(3-chloropropylsulfonyl)-N-methylamino]-3-cyano-4-trifluoromethylsulfonylpyrazole]
  active in one or more of the above tests: active

## CN(c1c(SC(F)(F)F)c(C#N)nn1-c1c(Cl)cc(C(F)(F)F)cc1Cl)S(=O)(=O)Cc1ccc(Cl)cc1 [Compound 2-45]
  active in one or more of the above tests: active

## CN(c1c([S+]([O-])C(F)(F)F)c(C#N)nn1-c1c(Cl)cc(C(F)(F)F)cc1Cl)S(=O)(=O)C(F)(F)F (stereo not shown) [Compound 1-90]
  active in one or more of the above tests: active

## CN(c1c([S+]([O-])C(F)(F)F)c(C#N)nn1-c1c(Cl)cc(C(F)(F)F)cc1Cl)S(=O)(=O)c1ccccc1 (stereo not shown) [Compound 5-81]
  active in one or more of the above tests: active

## CN(c1c(SC(F)(F)F)c(C#N)nn1-c1c(Cl)cc(C(F)(F)F)cc1Cl)S(=O)(=O)Cc1ccc(F)cc1 [Compound 2-51]
  active in one or more of the above tests: active

## CCCCCCCCCCS(=O)(=O)N(C)c1c([S+]([O-])C(F)(F)F)c(C#N)nn1-c1c(Cl)cc(C(F)(F)F)cc1Cl (stereo not shown) [Compound 1-95]
  active in one or more of the above tests: active

## CN(c1c(SC(F)(F)F)c(C#N)nn1-c1c(Cl)cc(C(F)(F)F)cc1Cl)S(=O)(=O)c1cccc(C(F)(F)F)c1 [Compound 5-15]
  active in one or more of the above tests: active

## Cc1ccc(CS(=O)(=O)N(C)c2c(SC(F)(F)F)c(C#N)nn2-c2c(Cl)cc(C(F)(F)F)cc2Cl)cc1 [Compound 2-74]
  active in one or more of the above tests: active

## CS(=O)(=O)[N-]c1c(SC(F)(F)F)c(C#N)nn1-c1c(Cl)cc(C(F)(F)F)cc1Cl.[Na+] [Compound 1-116]
  active in one or more of the above tests: active

## CN(c1c([S+]([O-])C(F)(F)F)c(C#N)nn1-c1c(Cl)cc(C(F)(F)F)cc1Cl)S(=O)(=O)c1ccc([N+](=O)[O-])cc1 (stereo not shown) [Compound 5-88]
  active in one or more of the above tests: active

## CN(c1c(SC(F)(F)F)c(C#N)nn1-c1c(Cl)cc(C(F)(F)F)cc1Cl)S(=O)(=O)Cc1cccc(C(F)(F)F)c1 [Compound 2-57]
  active in one or more of the above tests: active

## CN(c1c([S+]([O-])C(F)(F)F)c(C#N)nn1-c1c(Cl)cc(C(F)(F)F)cc1Cl)S(=O)(=O)c1ccc(F)cc1 (stereo not shown) [Compound 5-54]
  active in one or more of the above tests: active

## CN(c1c(SC(F)(F)F)c(C#N)nn1-c1c(Cl)cc(C(F)(F)F)cc1Cl)S(=O)(=O)Cc1ccc(Cl)s1 [Compound 4-32]
  active in one or more of the above tests: active

Reference: patent US7504362B2, “Pesticidal compositions” (Merial Limited, priority 2002, dated 2009)
